Test results published in patent publication US20150125546A1, “COMBINATION THERAPY FOR TREATING PULMONARY HYPERTENSION” (Gilead Sciences, Inc., priority 2013, published 2015).
Like-named read-outs stand apart in the source and are kept apart here. Ends that are not written are not given here.

What was measured:
[1] = tested on: cGMP synthesis in isolated intrapulmonary arteries; test: cGMP content in isolated rat intrapulmonary arteries; settings: for ET-1-stimulated cGMP synthesis in the presence of bosentan / ET-1 plus riociguat-stimulated cGMP synthesis in the presence of bosentan: 100 nM bosentan; for ET-1-stimulated cGMP synthesis in the presence of bosentan: 8 nM ET-1; for ET-1 plus riociguat-stimulated cGMP synthesis in the presence of bosentan: 8 nM ET-1 plus 30 nM riociguat
ETA receptor = biological target: T1, ETA receptor (Homo sapiens, UniProt P25101); settings: background statement; read-out: affinity for the ETA receptor; cited from earlier work
T1 sequence (P25101 21-427): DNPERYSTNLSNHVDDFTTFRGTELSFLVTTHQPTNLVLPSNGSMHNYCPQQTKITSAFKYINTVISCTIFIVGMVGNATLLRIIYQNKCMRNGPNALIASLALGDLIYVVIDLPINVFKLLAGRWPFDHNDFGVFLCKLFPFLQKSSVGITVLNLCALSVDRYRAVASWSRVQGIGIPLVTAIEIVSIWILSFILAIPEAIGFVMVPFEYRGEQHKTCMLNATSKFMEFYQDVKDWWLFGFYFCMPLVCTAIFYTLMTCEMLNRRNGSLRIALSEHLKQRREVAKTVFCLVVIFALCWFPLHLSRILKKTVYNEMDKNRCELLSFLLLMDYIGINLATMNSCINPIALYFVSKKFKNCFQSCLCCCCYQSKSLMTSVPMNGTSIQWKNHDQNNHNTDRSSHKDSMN

[2] = tested on: endothelin-1 (ET-1)-constricted intrapulmonary arteries isolated from rats; test: relaxation of ET-1-induced contraction of isolated rat intrapulmonary arterial rings; settings: for relaxation of ET-1-constricted intrapulmonary arteries: 8 nM ET-1; for effect on potency of the other drug to relax ET-1 constricted rat pulmonary arteries: qualitative (FIG. 6, FIG. 7)
[3] = tested on: phosphorylation of MLC2 by MLCK; test: ET-1-stimulated phosphorylation of MLC2 by MLCK in rat pulmonary arteries; settings: qualitative (FIG. 10)
Description: Further, ambrisentan and riociguat attenuated ET-1 stimulated phosphorylation of MLC2 by MLCK in rat pulmonary arteries (FIG. 10).

[4] = 30 nM alone, another run (FIG. 3, FIG. 4)
[5] = 30 nM alone, first run (FIG. 2), mean±SEM

For `COC(=O)[C@@H](N)CCCN=C(N)N[N+](=O)[O-].Cl` [L-NAME], the “blocking of ET-1 and its combination with riociguat to stimulate cGMP synthesis” value (from here on “blocking of ET-1 and its combination”) [1] was “significantly blocked”.
In the case of `COC(c1ccccc1)(c1ccccc1)[C@H](Oc1nc(C)cc(C)n1)C(=O)O` [ambrisentan, (2S)-2-[(4,6-dimethylpyrimidin-2-yl)oxy]-3-methoxy-3,3-diphenylpropanoic acid], the Ki (ETA receptor) is given as about 0.012 nM, the “relaxation of ET-1-constricted intrapulmonary arteries” value (shortened to “relaxation”) ([2]; 10 nM alone, another run (FIG. 3), mean±SEM) is given as 28.5±6.4% and the “relaxation” value ([2]; 10 nM alone, first run (FIG. 2), mean±SEM) is given as 29±6%. The “effect on potency of the other drug to relax ET-1 constricted rat pulmonary arteries” value [2] was “increased the potency of riociguat”, the “effect on ET-1 stimulated phosphorylation of MLC2 by MLCK” value [3] was “attenuated” and the “blocking of ET-1 and its combination” value ([1]; qualitative) was “but not ambrisentan, significantly blocked”.
For `COc1ccccc1Oc1c(NS(=O)(=O)c2ccc(C(C)(C)C)cc2)nc(-c2ncccn2)nc1OCCO` [bosentan], the “relaxation” value ([2]; 100 nM alone, another run (FIG. 4)) was 19.8%, the “relaxation” value ([2]; 100 nM alone, first run (FIG. 2), mean±SEM) was 23±3% and the “ET-1-stimulated cGMP synthesis in the presence of bosentan” value ([1]; another run (FIG. 9)) was 36 pmol/g tissue. The “ET-1-stimulated cGMP synthesis in the presence of bosentan” value ([1]; first run) was 21±3 pmol/g tissue, the “ET-1 plus riociguat-stimulated cGMP synthesis in the presence of bosentan” value ([1]; another run (FIG. 9)) was 97 pmol/g tissue and the “ET-1 plus riociguat-stimulated cGMP synthesis in the presence of bosentan” value ([1]; first run) was 37±3 pmol/g tissue. For the same molecule, the “blocking of ET-1 and its combination” value ([1]; qualitative) was “significantly blocked”.
With `CCCNS(=O)(=O)Nc1ncnc(OCCOc2ncc(Br)cn2)c1-c1ccc(Br)cc1` [macitentan] the “relaxation” value [2, 4] was 30.1% and the “relaxation” value [2, 5] was 30±6%.
With `COC(=O)N(C)c1c(N)nc(-c2nn(Cc3ccccc3F)c3ncccc23)nc1N` [riociguat, methyl (4,6-diamino-2-(1-(2-fluorobenzyl)-1H-pyrazolo[3,4-b]pyridin-3-yl)pyrimidin-5-yl)(methyl)carbamate] the “relaxation” value [2, 4] was 23.2±6.5%, the “relaxation” value [2, 5] was 23±3% and the “effect on potency of the other drug to relax ET-1 constricted rat pulmonary arteries” value [2] was “increased the potency of ambrisentan”. The “effect on ET-1 stimulated phosphorylation of MLC2 by MLCK” value [3] was “attenuated”, the “content of cGMP” value ([1]; 10 nM ET-1 and 30 nM riociguat in combination) was 96±7 pmol/g tissue and the “content of cGMP” value ([1]; 30 nM riociguat alone) was 34±5 pmol/g tissue. The “effect on ET-1-stimulated cGMP production” value ([1]; qualitative (FIG. 8)) was “potentiated ET-1-stimulated cGMP production”.
In the case of “Endothelin-1 (CSCSSLMDKECVYFCHLDIIW; ends and bridges not checked; cysteine pairing not given here; UniProt P05305 53-73, looked up) [ET-1]”, the “content of cGMP” value ([1]; 10 nM ET-1 alone) is reported as 37±4 pmol/g tissue.
